The values below come from article PMC1198236, “β-adrenergic receptor activation in immortalized human urothelial cells stimulates inflammatory responses by PKA-independent mechanisms” (Cell communication and signaling : CCS, 2005).

The structures appear in SMILES notation.

The experiment has as its target β-adrenergic receptor (β-AR; subtype not determined).

Consider `CC(C)(C)NC[C@H](O)COc1cccc2[nH]c(C#N)c(I)c12` [125I-CYP, (-)3-[125I]iodocyanopindolol], for which binding was characterised by a dissociation constant (Kd) of 0.0324 ± 0.0011 nM.
